Activity calls are given as the source filed them. No rule for the calls is given here.
Biological target: RanGTP-importin-beta complex (human Ran / KPNB1)
Assay: disruptors of RanGTP/KPNB1 binding – biochemical, FRET, CFP/YFP, cell-free homogeneous, confirmation (AID 2823)
Conditions: CFP-Ran/YFP-importin-beta FRET ratio

| SMILES | IC50 |
| --- | --- |
| CC(C)CCNC(=O)C(c1ccco1)N(Cc1ccccc1)C(=O)c1snc(C(N)=O)c1N (stereo unspecified) | > 50 µM (inactive) |
| COc1ccc(-c2c(C)c3ccc(O)cc3oc2=O)cc1OC | 37.2 µM |
| COc1ccc(-c2csc3ncnc(N4CCN(c5ccc(OC)cc5)CC4)c23)cc1 | > 50 µM (inactive) |
| CNc1cc(F)nc(F)n1 | 18.4 µM |
| CN1CCCN(C(=O)Cc2c(Cl)cccc2Cl)c2nc3ccccc3nc21 | 36.5 µM |
| Cc1cc(NCCN(C)C)n2nc(-c3cccs3)cc2n1 | 28.8 µM |
| CCN1C(=O)/C(=C2/Sc3ccccc3N2CCCS(=O)(=O)O)SC1=S | 15.2 µM |
| Nc1nonc1-n1nnc(C(=O)N/N=C/c2ccccc2)c1CSc1ccc(Cl)cc1 | > 50 µM (inactive) |
| Cc1c(CC(=O)NCC(=O)N[C@H](Cc2ccccc2)C(=O)O)c(=O)oc2cc(O)ccc12 | 46.2 µM |
| c1ccc2c(c1)nc(NCC1CCCO1)c1nnnn12 (stereo unspecified) | 30.3 µM |
| O=C(O)COc1ccc(F)cc1Br | > 50 µM (inactive) |
| CC(C)NC(=O)NC(=O)COC(=O)c1ccccc1O | > 50 µM (inactive) |
| N#CC1=C(N)SC(N)=C(C#N)C1c1cccc(Oc2ccccc2)c1 | > 50 µM (inactive) |
| Cc1ccc2nc(N3CCN(C(=O)c4ccc(F)cc4)CC3)c(C#N)cc2c1 | 23.3 µM |
| COCCCn1c(N)c(C(=O)Nc2ccccc2)c2nc3ccccc3nc21 | 40.8 µM |
| COc1ccc(C(=O)N/N=C/c2c(CO)cnc(C)c2O)cc1 | 3.13 µM |
| CCC(c1nnnn1C1CCCC1)N1CCC(C(N)=O)CC1 (stereo unspecified) | > 50 µM (inactive) |
| Cc1cccc(-n2c(C)cc(/C=C3\C(=N)N4N=C(CC(C)C)SC4=NC3=O)c2C)c1 | 10.6 µM |
| O=C(Oc1c(CN2CCOCC2)cc(Cl)c2cccnc12)c1ccccc1 | > 50 µM (inactive) |
| O=C(c1cc2c(=O)n3ccccc3nc2s1)N1CCN(Cc2ccccc2)CC1 | > 50 µM (inactive) |
| COc1cc(/C=C(\C#N)C(=O)Nc2cccc3ncccc23)cc(OC)c1OC | > 50 µM (inactive) |
| CN(C)S(=O)(=O)c1cccc(NC(=O)CNC2CCCCC2)c1 | > 50 µM (inactive) |

| SMILES | IC50 |
| --- | --- |
| Cc1ccc(/C=C2/C(=O)c3ccc(C(=O)O)cc3C2=O)o1 | > 50 µM (inactive) |
| COC(=O)c1ccc2c(C(C)(C)O)c(C(C)(C)O)[nH]c2c1 | > 50 µM (inactive) |
| CCn1c(SCC(=O)N(Cc2ccccc2)C2CCS(=O)(=O)C2)nc2ccccc2c1=O (stereo unspecified) | > 50 µM (inactive) |
| Cc1[nH]c2ccccc2c1/C=C/c1nc2ccccc2c(=O)n1CCO | > 50 µM (inactive) |
| Cc1cccc(N2C(=O)/C(=C/c3cccnc3)SC2=S)c1 | > 50 µM (inactive) |
| CNC(=O)c1cc2c(ccc3ccccc32)oc1=N | 5.26 µM |
| CCC(=O)Nc1c(S(=O)(=O)c2ccccc2)c2nc3ccccc3nc2n1Cc1ccccc1 | 20.9 µM |
| CCOC(=O)C1=C(C)NC2=C(C(=O)C(C(=O)OCC)C(c3ccc(OC)cc3)C2)C1c1ccccn1 (stereo unspecified) | 28.4 µM |
| CCOC(=O)C(=O)Nc1cc(C(=O)OC)cc(C(=O)OC)c1 | > 50 µM (inactive) |
| O=[N+]([O-])c1ccc(S(=O)(=O)Nc2nnc(C3CCCCC3)s2)cc1 | > 50 µM (inactive) |
| Cc1ccc(-c2c(C#N)c(N)nc3c2CCCC3)s1 | 25.7 µM |
| COC(=O)Cc1c(C)c2cc(Cl)c(OC(=O)c3ccco3)cc2oc1=O | 14.2 µM |
| O=C(NC1=NCCS1)c1cc(-c2cccnc2)nc2ccccc12 | > 50 µM (inactive) |
| CC1Cc2cc(S(=O)(=O)NCc3ccccc3)ccc2N1C(=O)C1CC1 (stereo unspecified) | > 50 µM (inactive) |
| O=C(NNc1c2ccccc2nc2ccccc12)c1cc2ccccc2cc1O | > 50 µM (inactive) |
| CC1=NN(C(=O)Cn2nc([N+](=O)[O-])cc2C)C(O)(C(F)(F)F)C1 (stereo unspecified) | > 50 µM (inactive) |
| CC(C)OC(=O)c1c(N)n(CC2CCCO2)c2nc3ccccc3nc12 (stereo unspecified) | 18 µM |
| O=C(Nc1ccccc1-c1ccccc1)c1cccs1 | > 50 µM (inactive) |
| CCn1c(SCc2nc(-c3ccccc3)no2)nnc1-c1cccs1 | > 50 µM (inactive) |
| Cc1c(Br)c(=O)oc2c(Br)c(O)c(O)cc12 | 26.3 µM |
| COc1ccc2c(c1)C(c1ccc(C)o1)=NNC(c1cccnc1)=N2 | > 50 µM (inactive) |
| COc1ccc(NC(=O)N2CCCCCC2)cc1 | > 50 µM (inactive) |

| SMILES | IC50 |
| --- | --- |
| O=C(NNc1c2ccccc2nc2ccccc12)c1ccc(Cl)cc1 | > 50 µM (inactive) |
| Cc1cc(C(=O)N/N=C2\CC(=O)CC(C)(C)C2)n[nH]1 | > 50 µM (inactive) |
| CCCCc1c(C)c(C#N)c2nc3ccccc3n2c1Nc1c(C)n(C)n(-c2ccccc2)c1=O | 45 µM |
| CCOC(=O)/C(C#N)=C/c1ccc(N2CCN(C)CC2)cc1 | 16 µM |
| CCN(C(=O)c1ccc(Cl)cc1[N+](=O)[O-])c1ccccc1C | > 50 µM (inactive) |
| CCOc1ccc(C)cc1S(=O)(=O)Nc1ccc(Cl)cn1 | > 50 µM (inactive) |
| OCCN1CCN(c2nc(-c3ccccc3)c3cc(Cl)ccc3n2)CC1 | 22.2 µM |
| CSc1nc(-c2ccc(N(C)C)cc2)c(C#N)c(=O)n1C | > 50 µM (inactive) |
| CCOC(=O)c1ccc2[nH]cc(C(C)=O)c(=O)c2c1 | 12.6 µM |
| COC(=O)C1=CN(Cc2ccc(OC)c(OC)c2)C=C(C(=O)OC)C1c1cccc(O)c1 | 14.3 µM |
| COc1ccccc1CNC(=O)COC(=O)Cc1ccc(Cl)cc1 | > 50 µM (inactive) |
| Cc1cc2c(c(=O)n1CC1CCCO1)C(c1ccco1)C(C#N)=C(N)O2 (stereo unspecified) | 20.9 µM |
| COc1cccc(C2=NOC(C(=O)Nc3cc(C)on3)C2)c1 (stereo unspecified) | > 50 µM (inactive) |
| N#C/C(=C\c1ccc(O)c(Br)c1)C(=O)NCc1ccccc1 | 25.8 µM |
| Cc1cccc(CN2CCc3c(OCC(=O)N4CCCc5ccccc54)cccc3C2=O)c1 | > 50 µM (inactive) |
| C/C(=N\N)c1c(-c2ccccc2)c2cc(Br)ccc2[nH]c1=O | > 50 µM (inactive) |
| O=C(Nc1ccc(OC(F)(F)F)cc1)c1ccc2nc[nH]c2c1 | > 50 µM (inactive) |
| COc1ccccc1NC(=O)CN1CCN(CC(=O)Nc2ccc(C)c(F)c2)CC1 | > 50 µM (inactive) |
| CCC(=O)N(C)/C=C1\Sc2ccccc2C1=O | > 50 µM (inactive) |
| Cc1ccc(C(=O)NNC2CC(=O)N(c3ccc4c(c3)OCCO4)C2=O)cc1 (stereo unspecified) | > 50 µM (inactive) |
| Cc1c(OCC(=O)NCc2ccncc2)ccc2c3c(c(=O)oc12)CCC3 | > 50 µM (inactive) |
| COc1ccccc1C1CC(c2ccc(Cl)cc2)Nc2nc(N)nn21 (stereo unspecified) | > 50 µM (inactive) |

| SMILES | IC50 |
| --- | --- |
| N#C/C(=C\c1ccc(N2CCOCC2)o1)C(=O)N1CCOCC1 | 4.66 µM |
| O=C(O)c1ccccc1C(=O)Nc1ccc(Br)c2cccnc12 | > 50 µM (inactive) |
| O=C(CN1C2CCCC1CC(NC(=O)c1ccco1)C2)Nc1ccccc1C(F)(F)F (stereo unspecified) | > 50 µM (inactive) |
| CN1CCN(C(=O)c2ccccc2Nc2ccc(SC(F)F)cc2)CC1 | > 50 µM (inactive) |
| COCC(=O)Nc1nnc(COc2ccc(Cl)cc2)s1 | > 50 µM (inactive) |
| COC(=O)C1=CN(Cc2ccc(OC)c(OC)c2)C=C(C(=O)OC)C1c1ccccc1F | 9.77 µM |
| COc1ccc(NC(=O)CN2C(=O)CC(C)S(=O)(=O)c3ccccc32)cc1 (stereo unspecified) | > 50 µM (inactive) |
| CC(C)c1ccccc1NC(=O)C1C2C=CC(C2)C1C(=O)O (stereo unspecified) | > 50 µM (inactive) |
| N#C/C(=C(/O)CSc1ccccn1)c1nc2ccccc2s1 | > 50 µM (inactive) |
| Oc1ccccc1/C=N/Nc1cc(N2CCCC2)nc(N2CCCC2)n1 | > 50 µM (inactive) |
| CCOCCCNC(=O)/C(C#N)=C/c1cc(Br)c(O)c(Br)c1 | 12.5 µM |
| Cc1c(S(=O)(=O)N2CCCC(C(=O)O)C2)cnn1C (stereo unspecified) | > 50 µM (inactive) |
| CCN(CC)S(=O)(=O)c1ccc(/C=C/C(=O)Nc2ccc(F)cc2F)cc1 | > 50 µM (inactive) |
| COc1ccc(OCC(=O)NNc2c3ccccc3nc3ccccc23)cc1 | > 50 µM (inactive) |
| COc1ccc(OC(=O)C2CC(=O)N(c3ccc(C)cc3)C2)cc1 (stereo unspecified) | > 50 µM (inactive) |
| O=C(c1ccc(F)cc1)c1cc2ccc(O)cc2oc1=O | 11.4 µM |
| Cc1cc(C2C(C#N)=C(N)SC(N)=C2C#N)c(C)s1 | > 50 µM (inactive) |
| Cc1cccc2cc(C#N)c(NCCCn3ccnc3)nc12 | 19.2 µM |
| COc1cc(/C(O)=C(\C#N)c2nc3ccccc3[nH]2)cc(OC)c1OC | 15.5 µM |
| CCN1CCc2c(sc(NC(=O)c3ccc(S(=O)(=O)N4CC(C)OC(C)C4)cc3)c2C(N)=O)C1 (stereo unspecified) | > 50 µM (inactive) |
| C=CCn1c(O)c(N=NC(=S)Nc2ccccc2F)c2cc(S(=O)(=O)N3CCOCC3)ccc21 | > 50 µM (inactive) |
| CCN(CCO)C(=S)Nc1cc(C(=O)OC)ccc1C(=O)OC | > 50 µM (inactive) |

| SMILES | IC50 |
| --- | --- |
| Clc1cccc(-c2ccc(C=Nc3ccc(N4CCOCC4)cc3)o2)c1Cl | > 50 µM (inactive) |
| COc1cc(S(=O)(=O)NCCCN2CCOCC2)ccc1Cl | > 50 µM (inactive) |
| COC(=O)c1cc2c(ccn2C)n1C | > 50 µM (inactive) |
| O=c1c2ccccc2sc2ccc(C#CC3(O)CCCCC3)cc12 | 23.1 µM |
| CN(C)CCCn1c(N)c(C#N)c2nc(C#N)c(C#N)nc21 | 21.9 µM |
| Cc1cccc(/C=N/c2sc3c(c2C#N)CCN(Cc2ccccc2)C3)c1O | > 50 µM (inactive) |
| COc1ccccc1/C=C/c1nc(C#N)c(N(C)C)o1 | 17.4 µM |
| CN(CCOc1ccccc1)CC(=O)Nc1ccc(Cl)cc1[N+](=O)[O-] | > 50 µM (inactive) |
| CC(=O)c1sc2nc(C)c3c(c2c1N)CCCC3 | 15.3 µM |
| O=C(c1ccco1)c1cc2c(ccc3ccccc32)oc1=O | 25 µM |
| Cc1cc(N2C(=O)C(O)=C(C(=O)c3cc4ccccc4o3)C2c2cccc(Cl)c2)no1 (stereo unspecified) | 36 µM |
| CCOC(=O)c1sc(NC(=O)CSc2nc(C)cc(C)n2)c(C#N)c1C | > 50 µM (inactive) |
| Cn1c2ccccc2c(=O)c2ccc(F)cc21 | 12.6 µM |
| CSc1nc(NCC(C)C)c2c3c(sc2n1)CN(C)CC3 | 44.2 µM |
| CCc1cc2c(COC(=O)c3c(C)noc3C)cc(=O)oc2cc1O | > 50 µM (inactive) |
| CC(C)OCCCNC(=O)CCSc1ccc(Cl)cc1 | > 50 µM (inactive) |
| CCN(CC)C(=O)Oc1ccc2c(c1)O/C(=C\c1ccco1)C2=O | 7.92 µM |
| CC(=O)N1c2ccc(S(=O)(=O)N3CCC(C(=O)Nc4cccc(Cl)c4)CC3)cc2CC1C (stereo unspecified) | > 50 µM (inactive) |
